Measurements taken from patent publication US20240382561A1, “GLUCOREGULATORY COMPOUND, COMPOSITION AND USES THEREOF” (THE HONG KONG POLYTECHNIC UNIVERSITY, priority 2021, published 2024).

How the values were obtained:
mouse primary adipocytes = assay: 2-NBDG glucose uptake in mouse primary adipocytes; assay type: cell-based; conditions: inhibitor 1 μM; for effect of co-treatment on CYSTM1-induced glucose uptake: primary adipocytes, CYSTM1 1 μM
Method: (§1) To determine whether CYSTM1 can increase glucose uptake in adipocytes, in vitro assays of 2-NBDG uptake in response to CYSTM1 treatment and potential inhibitors in 3T3-L1 adipocytes and mouse primary adipocytes were performed. 3T3-L1 preadipocytes were maintained in Dulbecco's modified Eagle's medium (DMEM) supplemented with 10% fetal bovine serum. Two days after confluence, 3T3-L1 cells were induced to differentiation using the standard adipogenic cocktail (0.5 mM IBMX, 1 μM dexamethasone and 10 μg/ml insulin) that was applied for 4 days and followed by 10 μg/ml insulin treatment for additional 4 days. The culture medium was changed every other day. The differentiated cells were maintained in normal serum containing DMEM. Mouse primary adipocytes were isolated from 10 to 12-week-old male C57BL/6J mice using a collagenase digestion protocol as described, briefly, white fat pads were removed, minced and digested using collagenase for 60-90 min at 37° C. in Krebs-Ringers phosphate HEPES buffer (KRPH) (15 mM HEPES, pH 7.4, 118 mM NaCl, 4.8 mM KCl, 1.2 mM MgSO4, 1.3 mM CaCl2, 1.2 mM KHPO3, 0.1% BSA). The stromal vascular fraction was separated from the adipocytes and cultured using DMEM and differentiated the same as 3T3-L1 adipocytes as described above. For glucose uptake, differentiated 3T3-L1 adipocytes and primary adipocytes are plated at 10,000 cells/well in 96-well plates and fasted overnight with low glucose serum-free medium (DMEM with 0.25% BSA) DMEM and 2-NBDG (Cayman Chemical) was performed as follow: briefly, 3T3-L1 cells were washed twice with warm (37° C.) KRPH buffer, and adipocytes were either untreated or treated with different concentration of CYSTM1 (1 nM, 10 nM, 100 nM and 1000 nM) for 1 h in KRPH buffer containing 400 nM of 2-NBDG. NBDG uptake was measured using a fluorescent microplate reader (Thermo Scientific Varioskan LUX Multimode Microplate Reader).

3T3-L1 adipocytes = assay: 2-NBDG glucose uptake in 3T3-L1 adipocytes; assay type: cell-based; conditions: inhibitor 1 μM; for effect of co-treatment on CYSTM1-induced glucose uptake: 3T3-L1 cells, CYSTM1 1 μM
Method: as §1

[1] = tested on: MIN6 pancreatic beta cell; assay: Insulin secretion in MIN6 cells with GLP-1R antagonist exendin (9-39); assay type: cell-based, mouse; conditions: exendin (9-39) 10 nM

Cc1cccc([C@@H](CO)NC(=O)[C@@H](C)N2Cc3ccc(-c4nc(NC5CCOCC5)ncc4Cl)cc3C2=O)c1 [ERK1/2 inhibitor 1]
effect of co-treatment on CYSTM1-induced glucose uptake (mouse primary adipocytes): blocked
effect of co-treatment on CYSTM1-induced glucose uptake (3T3-L1 adipocytes): blocked

CCn1c(-c2nonc2N)nc2c(C#CC(C)(C)O)ncc(OC[C@H]3CCCNC3)c21 [GSK690693]
inhibition of CYSTM1-induced increase in glucose uptake (mouse primary adipocytes; mouse primary adipocytes, 5 μM, 10 μM, CYSTM1 1 μM (FIG. 8D)): inhibited by the dose-dependent manner
effect of co-treatment on CYSTM1-induced glucose uptake (mouse primary adipocytes): blocked
inhibition of CYSTM1-induced increase in glucose uptake (3T3-L1 adipocytes; 3T3-L1 adipocytes, 5 μM, 10 μM, CYSTM1 1 μM (FIG. 8B)): inhibited by the dose-dependent manner
effect of co-treatment on CYSTM1-induced glucose uptake (3T3-L1 adipocytes): blocked

exendin (9-39)
inhibition of CYSTM1 activity (insulin secretion) by the antagonist ([1]; CYSTM1 10 nM): did not inhibit CYSTM1 activity
inhibition of glucose-induced insulin secretion of GLP-1 by the antagonist ([1]; GLP-1 10 nM): inhibited

glucagon-like peptide 1 [GLP-1]
glucose-induced insulin secretion of GLP-1 in presence of exendin (9-39) ([1]; GLP-1 10 nM): inhibited by exendin (9-39)
